From paper PMC3805332, “Synthesis of α-Glucan in Mycobacteria Involves a Hetero-octameric Complex of Trehalose Synthase TreS and Maltokinase Pep2” (ACS Chemical Biology, 2013)

What was measured:
[1] = biological target: TreS (trehalose synthase) (Mycobacterium tuberculosis, UniProt P9WQ19)
M. smegmatis TreS = biological target: T1, M. smegmatis TreS (Mycolicibacterium smegmatis, UniProt A0R6E0); experiment: hexokinase/pyruvate kinase/lactate dehydrogenase coupled NADH fluorescence; format: biochemical; conditions: hydrolysis to glucose; HEPES-NaOH pH 7.5, 1 mM MgCl2, trehalose 0-25 mM, TreS 0.4 μM
T1 construct: preparation of M. smegmatis TreS not described in main text
T1 sequence (A0R6E0 1-593): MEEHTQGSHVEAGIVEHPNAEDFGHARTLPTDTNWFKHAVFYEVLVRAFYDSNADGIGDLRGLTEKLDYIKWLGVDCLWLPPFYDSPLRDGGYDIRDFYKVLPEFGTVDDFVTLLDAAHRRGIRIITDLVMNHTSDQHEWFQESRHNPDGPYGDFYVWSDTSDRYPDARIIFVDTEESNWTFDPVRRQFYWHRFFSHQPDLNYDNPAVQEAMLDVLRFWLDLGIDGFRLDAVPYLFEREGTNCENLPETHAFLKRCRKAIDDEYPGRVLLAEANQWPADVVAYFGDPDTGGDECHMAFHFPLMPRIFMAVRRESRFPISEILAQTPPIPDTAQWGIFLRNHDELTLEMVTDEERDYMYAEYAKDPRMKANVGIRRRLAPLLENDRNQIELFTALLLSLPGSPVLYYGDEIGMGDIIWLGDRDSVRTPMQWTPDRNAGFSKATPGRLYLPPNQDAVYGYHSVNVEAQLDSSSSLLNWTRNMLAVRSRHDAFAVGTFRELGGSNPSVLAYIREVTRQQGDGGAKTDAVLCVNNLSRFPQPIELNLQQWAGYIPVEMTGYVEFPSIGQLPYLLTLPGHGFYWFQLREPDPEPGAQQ

Sequence of TreS (trehalose synthase) (P9WQ19 whole entry): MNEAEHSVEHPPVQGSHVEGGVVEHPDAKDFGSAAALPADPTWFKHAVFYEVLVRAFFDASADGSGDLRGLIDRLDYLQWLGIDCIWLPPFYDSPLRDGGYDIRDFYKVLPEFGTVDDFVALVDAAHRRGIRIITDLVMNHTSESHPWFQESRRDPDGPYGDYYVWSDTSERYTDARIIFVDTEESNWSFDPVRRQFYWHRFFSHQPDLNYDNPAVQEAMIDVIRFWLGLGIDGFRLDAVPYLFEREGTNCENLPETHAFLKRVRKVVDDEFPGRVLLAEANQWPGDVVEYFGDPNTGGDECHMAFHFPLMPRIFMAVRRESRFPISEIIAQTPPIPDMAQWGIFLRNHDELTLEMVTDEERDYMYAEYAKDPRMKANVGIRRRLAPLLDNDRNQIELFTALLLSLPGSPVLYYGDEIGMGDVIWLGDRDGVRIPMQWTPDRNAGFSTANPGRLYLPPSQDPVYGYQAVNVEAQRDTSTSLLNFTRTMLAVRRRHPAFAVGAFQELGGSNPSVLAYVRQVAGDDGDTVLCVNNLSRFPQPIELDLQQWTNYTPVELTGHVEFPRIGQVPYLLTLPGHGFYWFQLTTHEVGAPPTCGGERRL

| SMILES | end-point thin layer chromatography [1] | hexokinase/pyruvate kinase/lactate dehydrogenase coupled NADH fluorescence (M. smegmatis TreS) |
| --- | --- | --- |
| OC[C@H]1O[C@H](O[C@H]2[C@H](O)[C@@H](O)C(O)O[C@@H]2CO)[C@H](O)[C@@H](O)[C@@H]1O (stereo partly drawn) [maltose] | Incubation of TreS with trehalose or maltose interconverted the substrates | – |
| OC[C@H]1O[C@H](O[C@H]2O[C@H](CO)[C@@H](O)[C@H](O)[C@H]2O)[C@H](O)[C@@H](O)[C@@H]1O [trehalose] | Incubation of TreS with trehalose or maltose interconverted the substrates | we monitored M. smegmatis TreS-catalyzed conversion of trehalose to glucose in an enzyme-coupled continuous assay |
